Measured values taken from ChEMBL document CHEMBL4613212, “Insights of synthetic analogues of anti-leprosy agents” (Bioorg Med Chem, 2019).
Values after ≈ are worked out from the molar mass of the structure shown.

How the values were obtained:
[1] = test system: Enterococcus faecalis; experiment: Antimicrobial activity against Enterococcus faecalis ATCC 29212 by broth microdilution assay; assay type: functional
[2] = test system: Staphylococcus aureus; experiment: Antimicrobial activity against Staphylococcus aureus ATCC 25923 by broth microdilution assay; assay type: functional
[3] = test system: Enterococcus faecalis; experiment: Antimicrobial activity against Enterococcus faecalis ATCC 51922 by broth microdilution assay; assay type: functional
[4] = test system: Listeria monocytogenes; experiment: Antimicrobial activity against Listeria monocytogenes ATCC 1911 by broth microdilution assay; assay type: functional
[5] = test system: Klebsiella pneumoniae; experiment: Antimicrobial activity against Klebsiella pneumoniae 700603 by broth microdilution assay; assay type: functional
[6] = test system: Pseudomonas aeruginosa; experiment: Antimicrobial activity against Pseudomonas aeruginosa ATCC 27853 by broth microdilution assay; assay type: functional
[7] = test system: Escherichia coli; experiment: Antimicrobial activity against Escherichia coli ATCC 35218 by broth microdilution assay; assay type: functional
[8] = test system: Escherichia coli; experiment: Antimicrobial activity against Escherichia coli ATCC 25922 by broth microdilution assay; assay type: functional
[9] = test system: Mycobacterium tuberculosis; experiment: Antitubercular activity against Mycobacterium tuberculosis H37Rv ATCC 27294 incubated for 7 days by microplate alamar blue assay; assay type: functional; details: H37Rv ATCC 27294, 168 h
[10] = test system: Nakaseomyces glabratus; experiment: Antifungal activity against Candida glabrata; assay type: functional
[11] = test system: Mycobacterium tuberculosis; experiment: Antimycobacterial activity against Mycobacterium tuberculosis H37Rv infected in CF-1 mouse assessed as change in survival time at 5 mg/kg administrated daily for 14 days with food relative to control; assay type: functional
[12] = test system: Mycobacterium tuberculosis; experiment: Antimycobacterial activity against Mycobacterium tuberculosis H37Rv infected in CF-1 mouse assessed as change in survival time at 11 mg/kg administrated daily for 14 days with food relative to control; assay type: functional
[13] = test system: Mycobacterium tuberculosis; experiment: Antimycobacterial activity against Mycobacterium tuberculosis H37Rv infected in CF-1 mouse assessed as change in survival time at 3 mg/kg administrated daily for 14 days with food relative to control; assay type: functional
[14] = Plasma concentration in rifampin-susceptible Mycobacterium leprae infected in BALB/c mouse at 6 mg/kg administered with food daily for 1 week by high-pressure liquid chromatography analysis; assay type: ADME, organism-based; details: po
[15] = Plasma concentration in rifampin-susceptible Mycobacterium leprae infected in BALB/c mouse at 6 mg/kg administered with food daily for 2 weeks by high-pressure liquid chromatography analysis; assay type: ADME, organism-based; details: po
[16] = Plasma concentration in rifampin-susceptible Mycobacterium leprae infected in BALB/c mouse at 6 mg/kg administered with food daily for 4 weeks by high-pressure liquid chromatography analysis; assay type: ADME, organism-based; details: po
[17] = test system: Mycobacterium tuberculosis; experiment: Antitubercular activity against Mycobacterium tuberculosis H37Rv ATCC 27294 assessed as inhibition of [3H]-thymidine incorporation at 1 ug/ml relative to control; assay type: functional
[18] = test system: Mycobacterium leprae; experiment: Anti-leprotic activity against Mycobacterium leprae infected in BALB/c weanling mouse assessed as bacteria killing at 100 mg/kg, ip administrated for 60 days and measured after 1 year by most probable number technique analysis relative to control; assay type: functional
[19] = test system: Mycobacterium leprae; experiment: Anti-leprotic activity against Mycobacterium leprae infected in BALB/c weanling mouse assessed as bacteria killing at 100 mg/kg, ip administrated for 60 days and measured after 1 year by Spearman-Karber technique analysis relative to control; assay type: functional
[20] = test system: Mycobacterium tuberculosis; experiment: Antitubercular activity against Mycobacterium tuberculosis H37Rv ATCC 27294 assessed as growth inhibition at 6.25 ug/ml by microplate alamar blue assay relative to control; assay type: functional
[21] = Selectivity index, ratio of IC50 for African green monkey Vero cells to MIC for antitubercular activity against Mycobacterium tuberculosis H37Rv; assay type: toxicity; details: Vero cells, read-out: Selectivity Index

With `Fc1ccc(/C=N/NC(=S)Nc2ccc(C(F)(F)F)cc2)cc1` the MIC [1] was 200 µg/mL (≈ 586 µM), the MIC [2] was 100 µg/mL (≈ 293 µM) and the MIC [3] was 1600 µg/mL (≈ 4690 µM). For the same compound, the MIC [4] was 1600 µg/mL (≈ 4690 µM), the MIC [5] was 800 µg/mL (≈ 2340 µM) and the MIC [6] was 1600 µg/mL (≈ 4690 µM). For the same compound, the MIC [7] was 1600 µg/mL (≈ 4690 µM), the MIC [8] was 400 µg/mL (≈ 1170 µM) and the MIC [9] was 400 µg/mL (≈ 1170 µM). It also gave an MIC [10] of 200 µg/mL (≈ 586 µM).

For `Brc1ccc(/N=N/c2ccc(NCCCN3CCCCC3)c3c2CCCC3)cc1`, the MST [11] was 19 days, the MST [12] was 38 days and the MST [13] was 11 days.

`OO` [HYDROGEN PEROXIDE] gave a concentration at 168 h [14] of 42 ng/mL, a concentration at 336 h [15] of 50 ng/mL and a concentration at 672 h [16] of 55 ng/mL.

With `c1ccc(Cn2cnc3c(-c4ccccc4)ncnc32)cc1` the inhibition at 1 µg/mL [17] was under 10%.

`NC[C@H]1O[C@H](O[C@H]2[C@H](O)[C@@H](O[C@H]3O[C@H](CO)[C@@H](O)[C@H](N)[C@H]3O)[C@H](N)C[C@@H]2N)[C@H](O)[C@@H](O)[C@@H]1O` [KANAMYCIN] gave an Activity [18] of 99.8% and an Activity [19] of 99.7%.

`NCC[C@H](O)C(=O)N[C@@H]1C[C@H](N)[C@@H](O[C@H]2O[C@H](CN)[C@@H](O)[C@H](O)[C@H]2O)[C@H](O)[C@H]1O[C@H]1O[C@H](CO)[C@@H](O)[C@H](N)[C@H]1O` [AMIKACIN] showed an Activity [18] of 97.3% and an Activity [19] of 96%.

With `c1ccc(Cn2cnc3c(-c4cccs4)ncnc32)cc1` the inhibition at 6.25 µg/mL [20] was over 90%, the selectivity ratio [21] was over 1.6 and the inhibition at 1 µg/mL [17] was under 10%.
